Patent publication US7186695B2 (priority 2001, dated 2007)
“Also recorded” adds a separate entry of the source.

Columns and labels:
[1] = Titration of cysteine with GSAO, DTNB assay; type: binding; conditions: cysteine 28 μM, GSAO 0–50 μM, 10 minutes
Description: FIG. 11. Titration of DMP or cysteine with GSAO. DMP (15 μM corresponding to 30 μM thiols) is or cysteine (28 μM) was incubated with GSAO (0–50 μM) for 10 minutes. DTNB (950 μM) was then added and the reactions incubated for a further 10 minutes. The concentration of thiol in the reactions was determined from the absorbance of the TNB dianion at 412 nm.
A stock solution of DMP (5 μL, 50 μmol) was dissolved in DMSO (995 μL), giving a concentration of 50 mM DMP. A second dilution of the 50 mM DMP stock solution (10 μL) in pH 7.0 buffer (0.1 M HEPES, 0.3 M NaCl, 1 mM EDTA) (990 μL) gave a working solution of 500 ? M DMP. The activity of the arsenical could then be determined by the titration of varying amounts of arsenical against the DMP working solution (10 μL) in a 96-well microbitre plate, with the total volume made up to 195 μL by addition of buffer. After a 10 minute incubation at room temperature, during which time the solutions were agitated on a plate shaker, 5 μL of a 37.9 mM stock solution of DTNB (15 mg) in DMSO (1 mL) was added, and the plate incubated with shaking for another 10 minutes. The absorbance at 412 nm due to the formation of the TNB dianion was measured using a Molecular Devices Thermomax Plus (Palo Alto, Calif.) microplate reader. The extinction coefficient for the TNB dianion at pH 7.0 is 14,150 M^−1cm^−1 at 412 nm (Riddles et al., 1983).

[2] = test system: adjuvant-induced arthritis, rat ankles; conditions: in vivo
Thioredoxin = molecular target: T1, Thioredoxin (Homo sapiens, UniProt P10599); experiment: Binding of GSAO to thioredoxin active site dithiol, DTNB assay
T1 construct: purchased American Diagnostica, Greenwich, Conn; host or cells: E. coli
T1 sequence (P10599 1-105): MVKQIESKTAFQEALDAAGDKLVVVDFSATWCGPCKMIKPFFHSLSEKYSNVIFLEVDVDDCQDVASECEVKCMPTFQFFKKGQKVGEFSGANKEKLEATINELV
Description: FIG. 12. Interaction of GSAO with synthetic. Deptide and protein dithiols. DMP (A) (15 μM), 6,8-thioctic acid (B) ([…]), dithiothreitol (C) (8.5 μM), TrpCysGlyProCysLys (D) (4.6 μM), TrpCysGlyHisCysLys (E) (5.5 μM) or thioredoxin (F) (4.1 μM corresponding to 20.6 μM thiols) was incubated with GSAO (0–56 μM) for 10 minutes. DTNB (950 μM) was then added and the reactions incubated for a further 10 minutes. The concentration of thiol in the reactions was determined from the absorbance of the TNB dianion at 412 nm. The solid lines represent the best non-linear least squares fit of the data to Equation 1 (A to E) or Equation 2 (F) and have been drawn using the parameter estimates in Table 1. The dotted line in part A represents a simulated titration assuming an infinite affinity of GSAO for the dithiol. […]
A stock solution of DMP (5 μL, 50 μmol) was dissolved in DMSO (995 μL), giving a concentration of 50 mM DMP. […] The activity of the arsenical could then be determined by the titration of varying amounts of arsenical against the DMP working solution (10 μL) in a 96-well microbitre plate, with the total volume made up to 195 μL by addition of buffer. […] The absorbance at 412 nm due to the formation of the TNB dianion was measured using a Molecular Devices Thermomax Plus (Palo Alto, Calif.) microplate reader. […]

For `NC(CCC(=O)NC(CSCC(=O)Nc1ccc([As]=O)cc1)C(=O)NCC(=O)O)C(=O)O` (stereo not drawn) [GSAO, 4-(N-(S-glutathionylacetyl)amino)-phenylarsenoxide], the “interaction of GSAO with cysteine in DTNB titration” value [1] was “any interaction of GSAO with cysteine was displaced by DTNB”, the pannus formation [2] was “significantly reduced; also recorded: little to no pannus formation” and the “periarticular inflammation (density of inflammatory cells)” value [2] was “significantly reduced; also recorded: almost no inflammatory cells”. For the same molecule, the “signs of new bone formation (periosteal reaction)” value [2] was “none”, the Kd (Thioredoxin) was 370 ± 180 nM and the “higher affinity for thioredoxin than for the thioredoxin active site hexapeptide” value (Thioredoxin; thioredoxin vs TrpCysGlyProCysLys) was roughly 4 fold.
